These results are taken from patent US20060177821A1, “Association of the h2 haplotype of the p2y12 receptor with an increased risk for thrombosis and peripheral arterial disease” (priority 2002, published 2006).

One assay concerns platelets. Description: ADP-induced platelet aggregation in platelet-rich plasma (photometric aggregometry). Type of assay: cell-based, human. Particulars: 2 μM ADP; for maximal aggregation: mean±SEM; for maximal aggregation in response to ADP (median): citrated PRP, average of visits 1 and 2. The procedure: Venous blood was collected between 8:00 and 10:00 am, after an overnight fast, in tubes containing either 0.105 M sodium citrate (1 vol/9 vol) (BD Vacutainer®, Becton Dickinson, Le Pont de Claix, France) or 50 μg/mL lepirudine (Refludan®, Hoechst, Paris, France) using a 19-gauge needle and no tourniquet. The first 2 ml of blood was discarded. Platelet-rich plasma (PRP) was obtained by centrifugation at 1000 rpm for 10 min at room temperature. Autologous platelet-poor plasma, obtained by further centrifugation at 4000 rpm for 15 min, was used to adjust the platelet count of PRP to 250×10^9/L.
Aggregation studies were performed within 2 hours after blood collection. Aggregation was measured at 37° C. by using a photometric method on a four-channel aggregometer (Regulest® Amneville, France). A 280-μL aliquot of PRP was incubated for 3 min at 37° C. and then was stirred at 1100 rpm for 2 min before adding 20 μL of saline or ADP (Sigma-Aldrich, St Quentin Fallavier, France) at 1, 2 or 5 μM (final concentration). The platelet aggregation response was recorded for 5 min.

Assay [1] relates to iloprost-stimulated cAMP accumulation in platelets (P2Y12 regulation of adenylate cyclase). Kind of assay: Inhibition by ADP of iloprost-stimulated cAMP accumulation in platelets (EIA). Type of assay: cell-based. Particulars: Homo sapiens, Platelet, citrated PRP, read-out: inhibition of iloprost-stimulated cAMP formation; for inhibition at 1 µM: 1 μM ADP; for inhibition at 2 µM: 2 μM ADP; for inhibition at 5 µM: 5 μM ADP. The procedure:
Platelet cAMP content was measured in 20 selected subjects by incubating 270 μL of PRP with 10 μL of a solution of the stable prostacyclin analog iloprost (20 μg/L, final concentration) (Ilomédine®, Schering-Plough) for 1 min, with stirring, then adding 20 μL of saline or ADP (1, 2 or 5 μM). The reaction was stopped 3 min later by adding 20 μL of 12% trichloroacetic acid. CAMP was then extracted and measured with an enzyme immunoassay (EIA) (Amersham, Pharmacia Biotech, Orsay, France) according to the manufacturer's instructions, without knowledge of the subject's P2Y12 genotype.
(cAMP levels reflect the balance of adenylyl cyclase and phosphodiesterase activity.)

The mark [2] stands for this setting: platelets from carriers of the H2 haplotype.
[3] abbreviates: platelets from non carriers of the H2 haplotype.

SMILES strings stand for the structures. Read-outs that look alike come from different tables or passages of the source.

Broadly, the inhibition is the relative decrease from the control value, in per cent. As for `Nc1ncnc2c1ncn2[C@@H]1O[C@H](COP(=O)(O)OP(=O)(O)O)[C@@H](O)[C@H]1O` [ADP, adenosine 5′-diphosphate], the maximal aggregation in the assay on platelets (citrate-anticoagulated PRP (low Ca++), 10 carriers of the H2 allele) is reported as 71.5%±5.2%; with platelets (citrate-anticoagulated PRP (low Ca++), 10 non carriers of the H2 allele), 50.7%±7.2%; with platelets (hirudin-anticoagulated PRP (physiological Ca++), 10 carriers of the H2 allele), 53.8%±3.9%; in the assay on platelets (hirudin-anticoagulated PRP (physiological Ca++), 10 non carriers of the H2 allele), 42.8%±3.4%. Besides, the “maximal aggregation in response to ADP (median)” value in the assay with platelets (subjects carrying no H2 alleles (H1/H1, n=74)) is reported as 34.7%; with platelets (subjects carrying one H2 allele (H1/H2, n=21)), 67.9%; with platelets (subjects carrying two H2 alleles (H2/H2, n=3)) it was 82.4%. The inhibition at 1 µM in assay [1] (setting [2]) is 31%; in assay [1] (setting [3]) it was 13%. The inhibition at 2 µM in assay [1] (setting [2]) came to 39%; in assay [1] (setting [3]) it was 31%. For the same compound, the inhibition at 5 µM was determined as 50% in assay [1] (setting [2]) and 37% in assay [1] (setting [3]).
